Nine molecules from ChEMBL document CHEMBL1201862, “PubChem BioAssay data set” (2004) can be followed below.

Experiment [1] concerns HEK293. As to the kind of experiment: inhibition of NOD1-driven NF-kB reporter – cell-based, luminescence, uHTS, primary screen (AID 1578). It is filed as functional. The conditions noted are these: Homo sapiens.
Experiment [2] addresses T1, Nucleotide-binding oligomerization domain-containing protein 1 (Homo sapiens, UniProt Q9Y239).
T1 sequence (Q9Y239 whole entry): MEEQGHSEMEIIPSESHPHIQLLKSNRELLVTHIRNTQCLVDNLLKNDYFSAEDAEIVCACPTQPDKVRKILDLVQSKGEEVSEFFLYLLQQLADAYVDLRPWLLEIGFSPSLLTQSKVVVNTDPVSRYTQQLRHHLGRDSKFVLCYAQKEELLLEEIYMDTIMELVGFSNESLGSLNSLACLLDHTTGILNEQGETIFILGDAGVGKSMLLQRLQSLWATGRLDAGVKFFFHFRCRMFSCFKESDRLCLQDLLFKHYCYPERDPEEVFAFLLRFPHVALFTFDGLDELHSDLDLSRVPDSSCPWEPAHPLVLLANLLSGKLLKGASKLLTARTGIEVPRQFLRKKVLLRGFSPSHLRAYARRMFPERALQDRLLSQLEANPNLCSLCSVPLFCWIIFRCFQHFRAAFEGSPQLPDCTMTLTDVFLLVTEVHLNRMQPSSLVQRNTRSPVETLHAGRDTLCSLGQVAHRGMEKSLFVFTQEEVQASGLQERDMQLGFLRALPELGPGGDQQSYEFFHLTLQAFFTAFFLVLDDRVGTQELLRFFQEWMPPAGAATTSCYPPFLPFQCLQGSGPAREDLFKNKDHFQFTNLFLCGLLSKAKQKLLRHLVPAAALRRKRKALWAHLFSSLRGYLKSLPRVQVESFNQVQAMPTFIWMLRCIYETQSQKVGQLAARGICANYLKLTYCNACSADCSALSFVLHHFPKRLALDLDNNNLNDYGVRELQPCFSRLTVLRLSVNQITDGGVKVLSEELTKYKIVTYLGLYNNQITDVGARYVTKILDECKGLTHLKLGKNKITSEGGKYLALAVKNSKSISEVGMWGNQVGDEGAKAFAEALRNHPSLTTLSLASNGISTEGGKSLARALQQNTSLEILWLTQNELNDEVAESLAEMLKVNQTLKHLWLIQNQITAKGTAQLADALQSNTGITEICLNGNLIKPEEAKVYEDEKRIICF
Description: blockers of NOD1 pathway activity – revised, SAR follow-up (AID 2333). The experiment is classed as functional.

The target of another experiment is Tumor necrosis factor (Homo sapiens, UniProt P01375). Description: analog potency on TNFa NF-kB signaling – cell-based, revised, SAR follow-up (AID 2337). The experiment is classed as functional.
For experiment [3], the system named is HEK293. Description: NOD2 signaling inhibitors in MDP-stimulated cells, cell-based, uHTS, luminescence (AID 2001). The experiment is classed as functional. The following applies: Homo sapiens.
The subject of experiment [4] is HEK293. Description: cells. The experiment is classed as functional, cell-based. The following applies: Homo sapiens.
Experiment [5] deals with Nucleotide-binding oligomerization domain-containing protein 2 (Homo sapiens, UniProt Q9HC29). Description: PubChem AID 2334. The experiment is classed as functional.
Experiment [6] concerns HEK293. As to the kind of experiment: cells. The following applies: Homo sapiens.
Experiment [7] has as its system HEK293. Description: cells. It is filed as functional, cell-based. The conditions noted are these: Homo sapiens. The source holds these as a separate data set.
Another experiment concerns the target Large T antigen (Simian virus 40, UniProt P03070). The experiment is classed as functional, Betapolyomavirus macacae.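 Further: Confirmatory-stage PubChem screen for compounds that inhibit SV40 T antigen.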
Experiment [8] is described as follows: protection from phage-mediated lysis, alamar blue read-out – E. coli UTI89, K1F phage, bacterial capsule biogenesis inhibitors (AID 488966). It is filed as functional. In general terms: Alamar Blue is a resazurin reagent that responds to reducing activity.
In experiment [9] the target is Melanin-concentrating hormone receptor 1 (Homo sapiens, UniProt Q99705). Description: Late-stage fluorescence-based counterscreen for antagonists of the G-protein coupled receptor 7 (GPR7): cell-based dose response assay to identify antagonists of the melanin-concentrating hormone receptor 1 (MCHR1). [Related pubchem assays (depositor defined):AID1861, AID1880, AID1952, AID2148, AID2251, AID2257, AID485339]. The experiment is classed as functional. In general terms: Counterscreens check selectivity or assay interference.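 Further: stimulated with 30 nM MCH peptide agonist.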

Experiment [10] has as its target Neuropeptides B/W receptor type 1 (Homo sapiens, UniProt P48145). Description: human NPBW1 receptor blockade, IC50 – cell-based, fluorescence, dose response, late-stage follow-up (AID 463251). It is filed as functional.
Experiment [11] concerns the target Multidrug resistance protein CDR1 (Candida albicans, UniProt P43071). Description: inhibition of Nile Red efflux via Candida CDR1 – S. cerevisiae AD1-8u, singleplex, Cherry Pick1 hits, dose response (AID 588606). The experiment is classed as functional.
Experiment [12] addresses NACHT, LRR and PYD domains-containing protein 3 (Homo sapiens, UniProt Q96P20). Description: NALP3 inhibitors in yeast, dose response, luminescent (AID 488799). It is filed as functional.
Experiment [13] addresses T2, Dual specificity protein phosphatase 6 (Rattus norvegicus, UniProt Q64346).
T2 sequence (Q64346 whole entry): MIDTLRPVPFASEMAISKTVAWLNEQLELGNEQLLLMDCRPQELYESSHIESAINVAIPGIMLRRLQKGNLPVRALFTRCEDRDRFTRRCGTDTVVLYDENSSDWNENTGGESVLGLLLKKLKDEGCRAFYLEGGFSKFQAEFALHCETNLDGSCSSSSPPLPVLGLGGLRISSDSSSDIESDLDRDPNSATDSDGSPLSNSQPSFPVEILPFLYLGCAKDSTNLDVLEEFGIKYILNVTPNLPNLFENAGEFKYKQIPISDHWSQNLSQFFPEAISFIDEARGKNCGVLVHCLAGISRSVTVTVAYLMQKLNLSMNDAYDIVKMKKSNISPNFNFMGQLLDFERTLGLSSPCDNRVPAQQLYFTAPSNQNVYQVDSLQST
It is filed as functional.

For experiment [14], the target named is T3, Dual specificity protein phosphatase 3 (Homo sapiens, UniProt P51452). As to the kind of experiment: SAR VHR1 absorbance Assay for In Vitro dose response studies. [Related pubchem assays (depositor defined):AID1654, AID1661, AID1878, AID1992, AID2004].
Experiment [15] deals with T4, Tyrosine-protein phosphatase non-receptor type 7 (Homo sapiens, UniProt P35236).
T4 sequence (P35236 whole entry): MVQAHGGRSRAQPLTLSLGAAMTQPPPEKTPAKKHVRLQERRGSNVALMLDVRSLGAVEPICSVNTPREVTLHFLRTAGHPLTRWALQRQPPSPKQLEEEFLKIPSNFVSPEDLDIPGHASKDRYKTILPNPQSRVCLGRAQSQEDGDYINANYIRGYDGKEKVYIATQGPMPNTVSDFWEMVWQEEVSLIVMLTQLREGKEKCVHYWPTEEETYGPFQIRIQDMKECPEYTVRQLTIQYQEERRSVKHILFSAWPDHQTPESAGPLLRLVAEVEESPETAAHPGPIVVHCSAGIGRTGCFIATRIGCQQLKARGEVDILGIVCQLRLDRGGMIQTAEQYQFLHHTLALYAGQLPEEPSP
As to the kind of experiment: redox-active compounds inhibiting HePTP phosphatase – biochemical, fluorescence, mechanism study (AID 2068). It is filed as functional.

Experiment [16] has as its target T3, Dual specificity protein phosphatase 3. Description: SAR VHR1 Fluorescent Assay for In Vitro dose response studies. [Related pubchem assays (depositor defined):AID1654, AID1661, AID1878, AID1992, AID2004, AID2070, AID2085]. The experiment is classed as functional.
The target of experiment [17] is Metabotropic glutamate receptor 4 (Homo sapiens, UniProt Q14833). As to the kind of experiment: Modulation of the Metabotropic Glutamate Receptor mGluR4: Potency at human mGluR4. Modulation of intracellular Ca2+ using Fluo-4, AM, in CHO expressing recombinant receptor [Related pubchem assays (depositor defined):AID2437, AID2807]. The experiment is classed as functional, cell-based.

In experiment [18] the target is Metabotropic glutamate receptor 4 (Rattus norvegicus, UniProt P31423). Description: Modulation of the Metabotropic Glutamate Receptor mGluR4: Rat PAM Potency. [Related pubchem assays (depositor defined):AID2437, AID2807]. It is filed as functional.
Experiment [19] addresses T5, Voltage-dependent T-type calcium channel subunit alpha-1H (Homo sapiens, UniProt O95180). Description: Inhibitors of T-Type Calcium Channels. [Related pubchem assays (depositor defined):AID449739, AID463087, AID489005, AID493041, AID504579, AID504584, AID504619, AID504628]. It is filed as functional.
For experiment [20], the target named is T5, Voltage-dependent T-type calcium channel subunit alpha-1H. It is filed as functional.
For the next experiment, the target named is X-box-binding protein 1 (Homo sapiens, UniProt P17861). It is filed as functional, Cricetulus griseus.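 Further: confirmatory dose-response counter-screen serving a CHOP assay.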
Experiment [21] concerns the target T6, Estrogen receptor beta (Homo sapiens, UniProt Q92731).
Experiment [22] addresses T6, Estrogen receptor beta. Description: blockers of SRC-3 recruitment to ERβ – biochemical, ELISA, streptavidin-HRP readout, orthogonal assay, confirmation (AID 1060). Background: An ELISA detects its analyte on a solid surface through an enzyme-linked reagent.
Experiment [23] concerns the target T2, Dual specificity protein phosphatase 6. As to the kind of experiment: inhibition of rat DUSP6 enzyme activity – biochemical, in vitro, primary screen (AID 425).
For experiment [24] the target is unchanged.
Experiment [25] addresses T4, Tyrosine-protein phosphatase non-receptor type 7. It is filed as functional.
For a further experiment, the target named is Ephrin type-A receptor 4 (Mus musculus, UniProt Q03137). Description: EphA4 ligand-binding antagonists – biochemical, colorimetric, mouse EphA4, primary screen (AID 689). The experiment is classed as functional.
In experiment [26] the target is Glyceraldehyde-3-phosphate dehydrogenase (Homo sapiens, UniProt P04406).
In a further experiment the target is Bcl-2-like protein 10 (Homo sapiens, UniProt Q9HD36). As to the kind of experiment: Bcl-B/TR3 peptide binding disruption – biochemical, fluorescence polarization, FITC-TR3 peptide, selectivity assay for Bfl-1 inhibitor project, primary screen (AID 748).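 Further: fluorescence polarization from a fluorescein-labelled TR3 peptide binding purified Bcl-B.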
The target of another experiment is T7, Estrogen receptor (Homo sapiens, UniProt P03372).
T7 sequence (P03372 whole entry): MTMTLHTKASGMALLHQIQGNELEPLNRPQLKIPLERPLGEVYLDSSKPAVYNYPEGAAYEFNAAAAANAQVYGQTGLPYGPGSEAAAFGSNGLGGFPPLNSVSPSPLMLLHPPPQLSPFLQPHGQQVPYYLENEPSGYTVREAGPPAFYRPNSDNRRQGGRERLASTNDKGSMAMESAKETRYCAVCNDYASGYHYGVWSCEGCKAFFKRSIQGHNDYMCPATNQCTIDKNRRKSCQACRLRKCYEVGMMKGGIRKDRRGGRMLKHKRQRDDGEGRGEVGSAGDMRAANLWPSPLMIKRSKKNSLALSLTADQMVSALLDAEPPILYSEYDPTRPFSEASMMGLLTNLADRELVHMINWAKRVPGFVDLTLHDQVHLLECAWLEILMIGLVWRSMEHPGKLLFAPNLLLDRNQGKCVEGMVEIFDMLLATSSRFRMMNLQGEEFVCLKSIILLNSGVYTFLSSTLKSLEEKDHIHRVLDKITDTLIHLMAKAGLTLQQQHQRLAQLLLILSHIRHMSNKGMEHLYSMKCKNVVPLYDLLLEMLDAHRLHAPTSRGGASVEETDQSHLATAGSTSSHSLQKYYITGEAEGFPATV

The target of experiment [27] is Induced myeloid leukemia cell differentiation protein Mcl-1 (Homo sapiens, UniProt Q07820). It is filed as functional.

The source made the active and inactive calls. Where only a bound is given, the exact number is not on record here.

T3 sequence (P51452 whole entry): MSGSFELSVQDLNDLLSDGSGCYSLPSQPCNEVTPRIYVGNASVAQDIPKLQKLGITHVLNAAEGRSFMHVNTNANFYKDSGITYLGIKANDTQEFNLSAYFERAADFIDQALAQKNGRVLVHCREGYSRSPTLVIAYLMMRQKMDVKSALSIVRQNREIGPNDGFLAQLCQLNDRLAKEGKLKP
T5 sequence (O95180 whole entry): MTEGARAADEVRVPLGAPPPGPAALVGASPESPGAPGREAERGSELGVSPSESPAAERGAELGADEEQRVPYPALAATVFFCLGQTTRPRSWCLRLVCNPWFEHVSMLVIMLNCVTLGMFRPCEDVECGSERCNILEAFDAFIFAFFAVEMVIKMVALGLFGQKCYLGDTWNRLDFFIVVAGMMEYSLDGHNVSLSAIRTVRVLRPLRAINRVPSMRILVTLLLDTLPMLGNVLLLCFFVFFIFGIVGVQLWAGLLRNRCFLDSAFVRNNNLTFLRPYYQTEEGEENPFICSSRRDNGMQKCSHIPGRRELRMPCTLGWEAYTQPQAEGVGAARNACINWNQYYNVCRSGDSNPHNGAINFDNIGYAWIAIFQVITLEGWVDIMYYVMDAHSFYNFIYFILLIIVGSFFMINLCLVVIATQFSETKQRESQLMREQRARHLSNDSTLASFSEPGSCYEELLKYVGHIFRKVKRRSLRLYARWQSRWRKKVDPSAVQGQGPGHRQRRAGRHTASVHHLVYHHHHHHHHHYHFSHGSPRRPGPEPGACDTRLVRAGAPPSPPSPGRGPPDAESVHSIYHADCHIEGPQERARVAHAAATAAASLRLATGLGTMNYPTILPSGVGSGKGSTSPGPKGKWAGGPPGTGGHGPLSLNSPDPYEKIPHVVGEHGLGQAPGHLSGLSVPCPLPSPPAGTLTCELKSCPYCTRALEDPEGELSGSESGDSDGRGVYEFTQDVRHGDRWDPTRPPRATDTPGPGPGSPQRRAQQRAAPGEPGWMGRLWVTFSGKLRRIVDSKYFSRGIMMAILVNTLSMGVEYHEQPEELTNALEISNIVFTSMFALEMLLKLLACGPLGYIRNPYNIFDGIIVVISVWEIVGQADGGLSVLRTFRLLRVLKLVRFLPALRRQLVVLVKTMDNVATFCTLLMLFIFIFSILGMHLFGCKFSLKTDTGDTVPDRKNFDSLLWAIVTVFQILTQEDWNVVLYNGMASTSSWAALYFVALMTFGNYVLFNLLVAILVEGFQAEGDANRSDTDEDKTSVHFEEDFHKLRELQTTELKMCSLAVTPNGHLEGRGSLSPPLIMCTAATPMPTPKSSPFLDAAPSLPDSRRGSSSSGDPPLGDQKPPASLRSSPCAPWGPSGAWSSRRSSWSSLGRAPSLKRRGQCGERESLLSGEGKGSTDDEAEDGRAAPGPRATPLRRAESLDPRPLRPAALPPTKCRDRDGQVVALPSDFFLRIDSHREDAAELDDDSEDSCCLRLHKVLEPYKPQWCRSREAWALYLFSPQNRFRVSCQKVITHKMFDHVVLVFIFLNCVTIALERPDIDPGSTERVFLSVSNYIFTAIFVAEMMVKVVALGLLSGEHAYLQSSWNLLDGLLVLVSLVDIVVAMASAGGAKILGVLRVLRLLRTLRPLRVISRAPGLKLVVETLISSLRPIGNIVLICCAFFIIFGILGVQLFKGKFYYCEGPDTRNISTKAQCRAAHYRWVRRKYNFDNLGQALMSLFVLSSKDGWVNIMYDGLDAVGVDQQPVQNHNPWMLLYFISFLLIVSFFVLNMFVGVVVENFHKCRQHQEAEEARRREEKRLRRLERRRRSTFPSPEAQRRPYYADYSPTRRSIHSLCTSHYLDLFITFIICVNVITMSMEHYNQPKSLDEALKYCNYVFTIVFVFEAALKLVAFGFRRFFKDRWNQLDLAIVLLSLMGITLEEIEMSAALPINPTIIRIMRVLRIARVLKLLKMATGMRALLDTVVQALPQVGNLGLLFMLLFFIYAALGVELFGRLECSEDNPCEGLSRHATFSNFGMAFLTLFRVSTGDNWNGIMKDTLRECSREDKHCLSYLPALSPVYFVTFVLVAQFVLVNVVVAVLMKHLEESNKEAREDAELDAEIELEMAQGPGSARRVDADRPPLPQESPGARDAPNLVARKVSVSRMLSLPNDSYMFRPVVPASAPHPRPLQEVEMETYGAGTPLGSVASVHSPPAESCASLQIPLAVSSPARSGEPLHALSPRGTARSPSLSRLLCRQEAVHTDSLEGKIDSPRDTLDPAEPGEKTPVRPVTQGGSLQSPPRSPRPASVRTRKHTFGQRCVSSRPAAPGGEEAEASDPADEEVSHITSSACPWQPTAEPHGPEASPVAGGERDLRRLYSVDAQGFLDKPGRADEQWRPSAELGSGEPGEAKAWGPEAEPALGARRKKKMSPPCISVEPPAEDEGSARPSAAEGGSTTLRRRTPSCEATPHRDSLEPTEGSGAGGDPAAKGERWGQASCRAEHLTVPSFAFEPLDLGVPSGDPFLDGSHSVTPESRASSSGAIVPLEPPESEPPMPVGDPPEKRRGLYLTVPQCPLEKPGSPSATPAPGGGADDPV
T6 sequence (Q92731 whole entry): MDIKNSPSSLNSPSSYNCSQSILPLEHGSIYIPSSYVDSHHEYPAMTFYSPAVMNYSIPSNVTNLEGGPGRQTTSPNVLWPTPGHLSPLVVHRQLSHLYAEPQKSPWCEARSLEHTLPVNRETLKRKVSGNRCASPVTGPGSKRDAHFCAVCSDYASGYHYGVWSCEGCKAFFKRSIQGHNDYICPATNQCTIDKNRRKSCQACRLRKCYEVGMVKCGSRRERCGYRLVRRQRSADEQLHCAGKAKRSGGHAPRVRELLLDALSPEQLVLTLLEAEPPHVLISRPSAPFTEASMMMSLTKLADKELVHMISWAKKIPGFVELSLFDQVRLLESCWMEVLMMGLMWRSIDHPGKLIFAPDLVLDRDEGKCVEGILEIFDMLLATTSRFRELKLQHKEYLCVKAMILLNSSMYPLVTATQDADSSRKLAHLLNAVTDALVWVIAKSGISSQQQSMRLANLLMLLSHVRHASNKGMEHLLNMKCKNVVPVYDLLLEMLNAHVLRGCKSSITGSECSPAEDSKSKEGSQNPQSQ
Sequence of Ephrin type-A receptor 4 (Q03137 whole entry): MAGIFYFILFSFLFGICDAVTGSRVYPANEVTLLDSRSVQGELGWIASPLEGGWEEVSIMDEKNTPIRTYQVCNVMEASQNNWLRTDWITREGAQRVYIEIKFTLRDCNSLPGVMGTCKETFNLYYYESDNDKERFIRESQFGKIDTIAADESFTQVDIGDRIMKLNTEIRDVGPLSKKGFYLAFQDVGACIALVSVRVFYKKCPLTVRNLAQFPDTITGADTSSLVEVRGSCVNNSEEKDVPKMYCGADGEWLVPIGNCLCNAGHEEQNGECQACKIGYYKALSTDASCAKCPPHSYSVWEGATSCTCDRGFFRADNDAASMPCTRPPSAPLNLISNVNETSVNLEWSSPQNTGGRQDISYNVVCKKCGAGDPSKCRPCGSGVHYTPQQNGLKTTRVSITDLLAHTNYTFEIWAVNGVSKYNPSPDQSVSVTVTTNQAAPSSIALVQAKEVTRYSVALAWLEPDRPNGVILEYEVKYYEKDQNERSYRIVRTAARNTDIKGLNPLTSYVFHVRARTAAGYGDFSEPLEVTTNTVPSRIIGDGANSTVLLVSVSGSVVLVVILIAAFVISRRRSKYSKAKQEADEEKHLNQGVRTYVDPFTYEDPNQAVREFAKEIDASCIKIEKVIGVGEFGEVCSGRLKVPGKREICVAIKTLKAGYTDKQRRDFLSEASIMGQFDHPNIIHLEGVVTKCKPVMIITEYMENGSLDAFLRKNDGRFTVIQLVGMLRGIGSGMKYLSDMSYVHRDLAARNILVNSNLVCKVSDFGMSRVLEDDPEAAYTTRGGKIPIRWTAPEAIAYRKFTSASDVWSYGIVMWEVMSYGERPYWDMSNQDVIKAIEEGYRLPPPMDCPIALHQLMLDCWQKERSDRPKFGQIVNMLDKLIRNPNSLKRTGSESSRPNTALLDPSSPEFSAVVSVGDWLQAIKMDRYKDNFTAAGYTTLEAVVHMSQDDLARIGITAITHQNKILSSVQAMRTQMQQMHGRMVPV
Sequence of Melanin-concentrating hormone receptor 1 (Q99705 whole entry): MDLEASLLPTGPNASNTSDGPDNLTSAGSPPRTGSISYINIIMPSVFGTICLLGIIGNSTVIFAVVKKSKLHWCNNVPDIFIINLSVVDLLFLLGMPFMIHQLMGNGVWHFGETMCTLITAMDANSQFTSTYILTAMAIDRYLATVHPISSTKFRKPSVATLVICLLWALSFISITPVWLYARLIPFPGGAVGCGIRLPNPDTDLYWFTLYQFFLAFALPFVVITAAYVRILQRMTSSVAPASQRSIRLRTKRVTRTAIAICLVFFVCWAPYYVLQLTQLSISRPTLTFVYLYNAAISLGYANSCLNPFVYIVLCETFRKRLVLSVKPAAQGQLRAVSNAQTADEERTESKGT
Sequence of Tumor necrosis factor (P01375 whole entry): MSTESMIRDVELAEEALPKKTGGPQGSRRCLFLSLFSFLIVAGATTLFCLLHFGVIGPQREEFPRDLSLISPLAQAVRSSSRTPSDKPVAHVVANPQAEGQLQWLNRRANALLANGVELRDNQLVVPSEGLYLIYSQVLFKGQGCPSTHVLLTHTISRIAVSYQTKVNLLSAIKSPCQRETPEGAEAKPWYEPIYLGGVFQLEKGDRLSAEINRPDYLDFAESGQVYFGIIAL
Sequence of Neuropeptides B/W receptor type 1 (P48145 whole entry): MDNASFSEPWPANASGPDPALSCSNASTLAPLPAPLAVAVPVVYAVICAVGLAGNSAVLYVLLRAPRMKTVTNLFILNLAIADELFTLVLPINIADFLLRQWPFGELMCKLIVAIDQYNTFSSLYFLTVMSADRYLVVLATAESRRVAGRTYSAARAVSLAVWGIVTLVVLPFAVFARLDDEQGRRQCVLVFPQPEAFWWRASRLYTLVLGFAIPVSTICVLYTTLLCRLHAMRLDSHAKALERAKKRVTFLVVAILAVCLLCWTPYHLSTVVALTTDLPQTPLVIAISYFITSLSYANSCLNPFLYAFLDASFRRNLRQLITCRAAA

Take `CC1CCc2c(sc(NC(=O)c3cccs3)c2C(=O)O)C1` (centres undefined): the EC50 (in general, the midpoint of the concentration-response curve) with HEK293 [1] was > 20 µM (inactive). The IC50 (in experiment [2]; on Tumor necrosis factor; in the experiment with HEK293 [3]; with HEK293 [4]; in [5]; in the experiment with HEK293 [6]) was > 20 µM (inactive) each time. Moreover, the IC50 (in general, the concentration that inhibits the measured activity by half) with HEK293 [7] is > 20 µM (inactive).
In the case of `COc1ccc(NC2SC(=O)N(C)C2=O)cc1` (centres undefined), the concentration for half-maximal inhibition (IC50) at Large T antigen was 80.8 µM (active); in experiment [8] it was > 300 µM (active).
Consider `CC(=O)OCc1ccc(Oc2c(Cl)cnn(-c3ccc(C(C)C)cc3)c2=O)cc1`, for which the figures for the half-maximal inhibitory concentration (IC50) in experiment [9] and in experiment [10] were 3.5 µM (active) and 1.6 µM (active), respectively.
Turning to `CCC1Nc2ncnc(N3CCN(c4ccccn4)CC3)c2N(Cc2ccc(Br)cc2)C1=O` (centres undefined), in experiment [11], the EC50 was 12.4 µM (active). The IC50 in experiment [12] was 3.71 µM (active).
`S=C(NCc1ccccc1)c1cn(CCOc2ccccc2)c2ccccc12`: the IC50 in experiment [13], in [14], in [15] and in [16] was > 100 µM (inactive) in each case.
`CC1(C)CC(=O)N(c2ccc(NC(=O)c3ccccn3)cc2Cl)C1=O`: the values for the EC50 in experiment [17] and in [18] were 1.48 µM (active) and 2.32 µM (active), respectively.
Regarding `O=C(Nc1ccccc1)c1ccccc1NS(=O)(=O)c1ccc(Cl)s1`, the EC50 in [19] is 0.808 µM (active); in [20] it was 1.05 µM (active).
For `Cc1ccc(-c2ccc(/C=C(\C#N)C(=O)Nc3cc(C)nn3-c3ccccc3)o2)cc1`, on X-box-binding protein 1, the “Absolute IC50 (XBP1)” value is 10 µM.
`COc1ccc(N2Cc3cccc(C(=O)O)c3C2=O)cc1`: the concentration for half-maximal inhibition (IC50) on Estrogen receptor beta [21] is 2.15 µM (active); against Estrogen receptor beta [22], 0.704 µM (not active); in [13] it was > 100 µM (inactive); in experiment [23] it was > 10 µM (not active); in experiment [24], > 100 µM (inactive); in experiment [25], > 100 µM (not active). Besides, the concentration for half-maximal inhibition (IC50) at Ephrin type-A receptor 4 was 9.05 µM (active); in experiment [26], > 100 µM (not active); on Bcl-2-like protein 10, 4.06 µM (active); at Estrogen receptor it was 12 µM (active); in experiment [27], 4.43 µM (active).
